For test [1], the target named is T1, human Plasma Kallikrein (Homo sapiens (Human), UniProt P03952). Description: In vitro enzyme inhibition of human plasma kallikrein (Pro-Phe-Arg-AMC cleavage). It counts as biochemical. Here is the method:
(§1) The ability of the compounds disclosed herein to inhibit human plasma kallikrein activity was quantified according to the procedures below.
A 10 mM solution of the test compound was made in DMSO. This solution was serially diluted 1:5 in DMSO to yield 2000, 400, 80, 16, 3.2, 0.64, 0.128, 0.0256 and 0.00512 μM compound test solutions. A control tube containing only DMSO is included. 16 μL of each compound test solution was combined with 384 μL of assay buffer (50 mM Tris-HCl pH 7.5, 150 mM NaCl, 0.01% Triton X-100) to yield a “4× test compound buffer stock”.
Separately, a 40 nM solution of human Plasma Kallikrein (Abcam) and a 93.6 μM solution Pro-Phe-Arg-AMC (Bachem) were made using assay buffer. These solutions are hereby referred to as 4×hPK and 2×PFR-AMC, respectively.
60 μL of each 4× test compound buffer stock was combined with 60 μL of 4×hPK to yield 120 μL of “2× test compound buffer stock/2×hPK”. 50 μL was removed from this mixture and placed into duplicate wells on a Microfluor 1Black U-bottom microtiter plate (Thermo Scientific). This plate was incubated for 5 minutes at 37° C. To each well, 50 μL of pre-warmed 2×PFR-AMC was added to start the enzymatic reaction. Cleavage of PFR-AMC was monitored in a Biotek Synergy H4 reader set at 37° C. Readings are taken every 43 seconds for 1 hour. The highest mean velocity over 20 reads (˜15 minutes) is used to calculate the IC50. The IC50 is calculated using the Gen5 (Biotek Instruments).
The ability of the compounds listed in Table 2 to inhibit human plasma kallikrein activity was determined.

In test [2] the target is T1, human Plasma Kallikrein. Description: Human whole blood kallikrein inhibition (ellagic acid-activated human plasma, Z-FR-2-AMC substrate). It counts as biochemical. Conditions: human plasma activated with ellagic acid, Z-FR-2-AMC 40 μM, 37° C.; read-out: HWB EC50. Here is the method: as §1
All dilutions were prepared in an assay buffer comprising 50 mM Tris-HCl pH 7.2, 150 mM NaCl, and 0.01% Triton X-100.
Human plasma was thawed on ice and centrifuged for 15 min at 4° C. to remove platelets. A 1 mM stock solution of ellagic acid was diluted to 8 μM and mixed with human plasma, after removing platelets, at a ratio of 1:0.8. The mixture of human plasma and ellagic acid was further diluted 32-fold in the assay buffer, to yield the final mixture for use in the inhibition assay.
A 22.5 μL volume of the final mixture of human plasma and ellagic acid was added to a 96-well microwell plate and the plate was incubated for 15 min at 37° C.
The test compound solution was prepared to provide final concentrations of 20 μM, 5 μM, 1.25 μM, 312.5 nM, 78.125 nM, 19.531 nM, 4.883 nM, 1.221 nM, 0.305 nM, and 0.076 nM. Each test compound concentration was tested in duplicates.
In addition to the inhibitor control and test wells, the 96 well assay plate included positive control wells which contain the mixture of human plasma and ellagic acid without test compounds, and background wells which contain neither the mixture of human plasma and ellagic acid nor the test compounds. The total volume of liquid in positive control and background wells was brought up to 35 μL using the assay buffer.
The assay plate containing test compounds mixed with human plasma and ellagic acid and appropriate controls was incubated at 37° C. for 5 min. A 10 mM stock solution of substrate Z-FR-2-AMC was diluted to 133.2 μM in the assay buffer, and 15 μL of the diluted substrate was added to each well, to yield a final substrate concentration of 40 μM in each well. The reagents were mixed by shaking the plate gently for 30 sec.
The enzyme reaction was quantified by immediate kinetic reading of the assay plate using excitation/emission wavelengths of 330 nm/440 nm respectively. Fluorescence intensity was recorded for 60 min, using a time interval of 43 sec.
The inhibition activity of the test compounds were evaluated using the IC50 values, calculated according to the dose-response curve of the test compounds, fitted using the “log(inhibitor)−response(variable slope)” equation in GraphPadPrism software (GraphPad Software, Inc.).
The percentage inhibition (EC50) was calculated using the following equation:
[formula] where, Mean(BG) is the average value of the fluorescence intensity of the background wells and Mean(PC) is the average value of the fluorescence intensity of the positive control wells.

Setting [3] is: human plasma kallikrein, PFR-AMC substrate, 37° C., read-out: hPK IC50.

Like-named read-outs stand apart in the source and are kept apart here. Where only a bound is given, the exact number is not on record here.

T1 sequence (P03952 391-638 limits assumed): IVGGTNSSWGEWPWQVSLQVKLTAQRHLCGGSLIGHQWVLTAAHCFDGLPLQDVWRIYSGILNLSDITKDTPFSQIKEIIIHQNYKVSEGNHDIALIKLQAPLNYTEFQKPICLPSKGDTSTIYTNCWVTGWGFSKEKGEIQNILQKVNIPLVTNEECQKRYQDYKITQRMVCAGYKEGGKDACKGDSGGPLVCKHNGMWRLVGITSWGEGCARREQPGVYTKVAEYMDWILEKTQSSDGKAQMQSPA
T1 sequence (P03952 20-390 partner limits assumed): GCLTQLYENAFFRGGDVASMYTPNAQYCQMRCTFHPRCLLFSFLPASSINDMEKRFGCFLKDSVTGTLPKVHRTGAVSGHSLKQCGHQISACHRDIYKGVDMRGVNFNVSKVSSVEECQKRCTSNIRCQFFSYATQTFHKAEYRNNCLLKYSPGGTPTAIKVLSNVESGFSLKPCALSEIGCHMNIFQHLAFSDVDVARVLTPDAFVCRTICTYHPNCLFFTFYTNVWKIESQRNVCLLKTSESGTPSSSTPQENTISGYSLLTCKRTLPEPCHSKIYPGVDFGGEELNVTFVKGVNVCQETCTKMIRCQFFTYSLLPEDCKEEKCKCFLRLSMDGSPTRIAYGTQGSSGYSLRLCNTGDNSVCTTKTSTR

Usually IC50 stands for the point on the concentration scale where inhibition reaches its midpoint. The term EC50 denotes the concentration at which the effect is half-maximal. Regarding `Cc1cc(N)nc(C)c1CNC(=O)c1cn(Cc2ccc3ncc(Cl)cc3c2)c2ccc(=O)[nH]c12` [Example 126, N-((6-amino-2,4-dimethylpyridin-3-yl)methyl)-1-((3-chloroquinolin-6-yl)methyl)-5-oxo-4,5-dihydro-1H-pyrrolo[3,2-b]pyridine-3-carboxamide], the IC50 on human Plasma Kallikrein [1] (setting [3]) is less than 100 nM. Further, the EC50 at human Plasma Kallikrein [2] is less than 100 nM.

As to `Cc1nc(N)ccc1CNC(=O)c1cn(Cc2ccc3ncc(Cl)cc3c2)c2ccc(=O)[nH]c12` [Example 125, N-((6-amino-2-methylpyridin-3-yl)methyl)-1-((3-chloroquinolin-6-yl)methyl)-5-oxo-4,5-dihydro-1H-pyrrolo[3,2-b]pyridine-3-carboxamide], the IC50 at human Plasma Kallikrein [1] (setting [3]) is less than 100 nM. Also, the EC50 on human Plasma Kallikrein [2] is less than 100 nM. As for `N#Cc1nn(Cc2ccc3ncc(Cl)cc3c2)cc1C(=O)NCc1ccc2[nH]cc(Cl)c2c1F` [Example 47, N-((3-chloro-4-fluoro-1H-indol-5-yl)methyl)-1-((3-chloroquinolin-6-yl)methyl)-3-cyano-1H-pyrazole-4-carboxamide], the IC50 at human Plasma Kallikrein [1] (setting [3]) lay within 100 to 1000 nM. For the molecule `N#Cc1nn(Cc2cc(F)c3ncc(Cl)cc3c2)cc1C(=O)NCc1n[nH]c2ccc(Cl)cc12` [Example 55, N-((5-chloro-1H-indazol-3-yl)methyl)-1-((3-chloro-8-fluoroquinolin-6-yl)methyl)-3-cyano-1H-pyrazole-4-carboxamide], at human Plasma Kallikrein [1] (setting [3]), the IC50 fell in the range of 100 to 1000 nM. Consider `Cc1cc(N)nc(C)c1CNC(=O)c1nc(Cc2ccc3ncc(Cl)cc3c2)c2ccccn12` [Example 23, N-((6-amino-2,4-dimethylpyridin-3-yl)methyl)-1-((3-chloroquinolin-6-yl)methyl)imidazo[1,5-a]pyridine-3-carboxamide], for which the IC50 on human Plasma Kallikrein [1] (setting [3]) was less than 100 nM. Take `Cc1cc(N)nc(C)c1CNC(=O)c1cc(C#N)n(Cc2ccc3ncc(Cl)cc3c2)n1` [Example 108, N-((6-amino-2,4-dimethylpyridin-3-yl)methyl)-1-((3-chloroquinolin-6-yl)methyl)-5-cyano-1H-pyrazole-3-carboxamide]: on human Plasma Kallikrein [1] (setting [3]), the IC50 fell in the range of 100 to 1000 nM. On the same count and under the same terms, with `Cc1cc(N)nc(C)c1CNC(=O)c1cn(Cc2ccc3ncc(Cl)cc3c2)nc1CF` [Example 93, N-((6-amino-2,4-dimethylpyridin-3-yl)methyl)-1-((3-chloroquinolin-6-yl)methyl)-3-(fluoromethyl)-1H-pyrazole-4-carboxamide] the figure was less than 100 nM; with `COC(=O)c1nc(C(=O)NCc2c(C)cc(N)nc2C)nn1Cc1ccc2ncc(Cl)cc2c1` [Example 102, methyl 3-(((6-amino-2,4-dimethylpyridin-3-yl)methyl)carbamoyl)-1-((3-chloroquinolin-6-yl)methyl)-1H-1,2,4-triazole-5-carboxylate], more than 10000 nM; with `Cc1cc(N)nc(C)c1CNC(=O)c1cc(C#N)nn1Cc1ccc2ncc(Cl)cc2c1` [Example 109, N-((6-amino-2,4-dimethylpyridin-3-yl)methyl)-1-((3-chloroquinolin-6-yl)methyl)-3-cyano-1H-pyrazole-5-carboxamide], more than 10000 nM. As to `Cc1cnc2c(C#N)cc(Cn3cc(C(=O)NCc4c(C)cc(N)nc4C)c(C(N)=O)n3)cc2c1` [Example 63, N4-((6-amino-2,4-dimethylpyridin-3-yl)methyl)-1-((8-cyano-3-methylquinolin-6-yl)methyl)-1H-pyrazole-3,4-dicarboxamide], at human Plasma Kallikrein [1] (setting [3]), the IC50 is 100 to 1000 nM. Turning to `N#Cc1nn(Cc2ccc3ncc(Cl)cc3c2)cc1C(=O)NCc1n[nH]c2ccc(Cl)cc12` [Example 48, N-((5-chloro-1H-indazol-3-yl)methyl)-1-((3-chloroquinolin-6-yl)methyl)-3-cyano-1H-pyrazole-4-carboxamide], at human Plasma Kallikrein [1] (setting [3]), the IC50 fell in the range of 100 to 1000 nM. Same read-out and setting: with `Cc1cc(N)nc(C)c1CNC(=O)c1c[nH]c(Cc2ccc3ncc(Cl)cc3c2)n1` [Example 103, N-((6-amino-2,4-dimethylpyridin-3-yl)methyl)-2-((3-chloroquinolin-6-yl)methyl)-1H-imidazole-4-carboxamide] the figure was less than 100 nM. Consider `N#Cc1nn(Cc2ccc3ncc(Cl)cc3c2)cc1C(=O)NCc1cc2c(Cl)c[nH]c2cc1F` [Example 51, N-((3-chloro-6-fluoro-1H-indol-5-yl)methyl)-1-((3-chloroquinolin-6-yl)methyl)-3-cyano-1H-pyrazole-4-carboxamide], for which the IC50 on human Plasma Kallikrein [1] (setting [3]) lay in the range of 100 to 1000 nM. Consider `Cc1cc(N)nc(C)c1CNC(=O)c1cnn(Cc2cc(F)c3ncc(Cl)cc3c2)c1C#N` [Example 70, N-((6-amino-2,4-dimethylpyridin-3-yl)methyl)-1-((3-chloro-8-fluoroquinolin-6-yl)methyl)-5-cyano-1H-pyrazole-4-carboxamide], for which, on human Plasma Kallikrein [1] (setting [3]), the IC50 was more than 10000 nM. For `Cc1cc(N)nc(C)c1CNC(=O)c1cnc(Cc2ccc3ncc(Cl)cc3c2)n1C` [Example 105, N-((6-amino-2,4-dimethylpyridin-3-yl)methyl)-2-((3-chloroquinolin-6-yl)methyl)-1-methyl-1H-imidazole-5-carboxamide], the IC50 on human Plasma Kallikrein [1] (setting [3]) lay in the range of 1000 to 10000 nM. As for `Cc1nc(N)ccc1CNC(=O)c1coc(Cc2ccc3ncc(Cl)cc3c2)n1` [Example 83, N-((6-amino-2-methylpyridin-3-yl)methyl)-2-((3-chloroquinolin-6-yl)methyl)oxazole-4-carboxamide], the IC50 at human Plasma Kallikrein [1] (setting [3]) lay in the range of 100 to 1000 nM. Turning to `N#Cc1nn(Cc2cc(F)c3ncc(Cl)cc3c2)cc1C(=O)NCc1cc2c(Cl)c[nH]c2cc1F` [Example 53, N-((3-chloro-6-fluoro-1H-indol-5-yl)methyl)-1-((3-chloro-8-fluoroquinolin-6-yl)methyl)-3-cyano-1H-pyrazole-4-carboxamide], the IC50 on human Plasma Kallikrein [1] (setting [3]) is less than 100 nM. Consider `Cc1nc(N)ccc1CNC(=O)c1nnc(Cc2ccc3ncc(Cl)cc3c2)o1` [Example 79, N-((6-amino-2-methylpyridin-3-yl)methyl)-5-((3-chloroquinolin-6-yl)methyl)-1,3,4-oxadiazole-2-carboxamide], for which the IC50 at human Plasma Kallikrein [1] (setting [3]) was in the range of 100 to 1000 nM. In the case of `Cc1cc(N)nc(C)c1CNC(=O)c1cn(Cc2ccc3ncc(Cl)cc3c2)c2nc[nH]c(=O)c12` [Example 132, N-((6-amino-2,4-dimethylpyridin-3-yl)methyl)-7-((3-chloroquinolin-6-yl)methyl)-4-oxo-4,7-dihydro-3H-pyrrolo[2,3-d]pyrimidine-5-carboxamide], the concentration for half-maximal inhibition (IC50) on human Plasma Kallikrein [1] (setting [3]) is more than 10000 nM. On to `COc1ncnc2c1c(C(=O)NCc1c(C)cc(N)nc1C)cn2Cc1ccc2ncc(Cl)cc2c1` [Example 131, N-((6-amino-2,4-dimethylpyridin-3-yl)methyl)-7-((3-chloroquinolin-6-yl)methyl)-4-methoxy-7H-pyrrolo[2,3-d]pyrimidine-5-carboxamide], for which, on human Plasma Kallikrein [1], the IC50 was 100 to 1000 nM. Regarding `Cc1cc(N)nc(C)c1CNC(=O)c1nc(Br)n(Cc2ccc3ncc(Cl)cc3c2)n1` [Example 100, N-((6-amino-2,4-dimethylpyridin-3-yl)methyl)-5-bromo-1-((3-chloroquinolin-6-yl)methyl)-1H-1,2,4-triazole-3-carboxamide], at human Plasma Kallikrein [1] (setting [3]), the IC50 was less than 100 nM. For the molecule `Cc1cc(N)nc(C)c1CNC(=O)c1nn(Cc2ccc3ncc(Cl)cc3c2)c2ccnc(C#N)c12` [Example 76, N-((6-amino-2,4-dimethylpyridin-3-yl)methyl)-1-((3-chloroquinolin-6-yl)methyl)-4-cyano-1H-pyrazolo[4,3-c]pyridine-3-carboxamide], the concentration for half-maximal inhibition (IC50) on human Plasma Kallikrein [1] (setting [3]) is less than 100 nM.
